US6682892B2, “Method for treating herpes viruses” (priority 2000, dated 2004)

Biological target: T1, HCMV V823A/V824L polymerase (Human cytomegalovirus, UniProt P08546, V823A/V824L)
T1 construct: made in house
T1 sequence (P08546 1-1242 V823A/V824L): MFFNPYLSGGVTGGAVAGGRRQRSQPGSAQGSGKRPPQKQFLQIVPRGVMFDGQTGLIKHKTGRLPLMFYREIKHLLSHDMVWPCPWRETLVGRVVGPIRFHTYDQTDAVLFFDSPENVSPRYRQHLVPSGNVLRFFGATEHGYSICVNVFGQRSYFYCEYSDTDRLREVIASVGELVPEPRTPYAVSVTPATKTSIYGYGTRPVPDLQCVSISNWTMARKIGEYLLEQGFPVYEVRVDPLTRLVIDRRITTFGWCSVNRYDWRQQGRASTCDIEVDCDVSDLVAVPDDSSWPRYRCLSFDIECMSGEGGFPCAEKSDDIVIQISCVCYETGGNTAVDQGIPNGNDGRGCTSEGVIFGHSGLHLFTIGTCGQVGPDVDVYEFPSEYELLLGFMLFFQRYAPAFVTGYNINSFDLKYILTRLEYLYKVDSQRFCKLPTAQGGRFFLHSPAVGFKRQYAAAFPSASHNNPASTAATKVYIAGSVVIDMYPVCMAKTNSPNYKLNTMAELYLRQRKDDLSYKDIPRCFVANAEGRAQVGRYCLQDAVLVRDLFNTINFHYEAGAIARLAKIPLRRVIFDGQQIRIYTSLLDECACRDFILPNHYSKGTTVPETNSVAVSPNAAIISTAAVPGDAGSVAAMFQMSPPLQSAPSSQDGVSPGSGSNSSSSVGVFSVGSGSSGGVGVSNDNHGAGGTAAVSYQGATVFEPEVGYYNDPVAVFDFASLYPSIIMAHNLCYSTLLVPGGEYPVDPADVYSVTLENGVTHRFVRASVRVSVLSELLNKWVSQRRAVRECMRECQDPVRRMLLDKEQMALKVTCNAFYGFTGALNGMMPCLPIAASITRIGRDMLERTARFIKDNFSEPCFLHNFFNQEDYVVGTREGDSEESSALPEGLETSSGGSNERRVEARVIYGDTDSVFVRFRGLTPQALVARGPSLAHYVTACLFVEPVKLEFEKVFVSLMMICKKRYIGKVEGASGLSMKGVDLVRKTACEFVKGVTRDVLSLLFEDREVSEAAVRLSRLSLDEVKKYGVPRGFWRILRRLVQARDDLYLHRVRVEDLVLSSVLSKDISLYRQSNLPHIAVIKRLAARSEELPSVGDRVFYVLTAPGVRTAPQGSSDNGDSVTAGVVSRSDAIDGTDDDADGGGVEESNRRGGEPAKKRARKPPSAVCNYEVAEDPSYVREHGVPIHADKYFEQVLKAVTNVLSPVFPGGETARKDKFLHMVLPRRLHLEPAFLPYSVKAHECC
Assay: In vitro polymerase assay, mutant HCMV polymerase V823A/V824L
Type: biochemical
Method: In order to select for a 4-oxo-DHQ HCMV resistant mutant, virus (strain AD169) is serially passaged in the presence of 20 uM a 4-oxo-DHQ. […] In order to determine if both valines need to be changed in order to confer resistance to the 4-oxo-DHQ's, in vitro polymerase assays are done using mutant HCMV polymerases containing either V823A or V823A plus V824L (Table 3).

In the case of Cn1cc(C(=O)NCc2ccc(Cl)cc2)c(=O)c2cc(/C=C\CO)cc(F)c21 [Compound 1], the IC50 (Table 3) is reported as 42.9 µM and the “increase in resistance, HCMV V823A/V824L polymerase” value (relative to wild type) is reported as “*Mutation of the amino acid from valine to alanine and amino acid 824 from valine to leucine results in an 9-fold increase in resistance, relative to wild type”.
